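Assay format: 96-well plates, 48-hour exposure. GI50: concentration for 50% inhibition of growth.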 The source made the active and inactive calls. No stated cut-off is given here; in the data, active = GI50 up to about 1.1 µM and inactive = higher.
Experiments:
Assay in all cases: inhibition of tumour cell growth, NCI panel, 48 h
HCT-116 = tested on: HCT-116
CCRF-CEM = tested on: CCRF-CEM
NCI-H226 = tested on: NCI-H226
OVCAR-8 = tested on: OVCAR-8
BT-549 = tested on: BT-549
XF498 = tested on: XF498
UO-31 = tested on: UO-31
UACC-257 = tested on: UACC-257
OVCAR-3 = tested on: OVCAR-3
MDA-N = tested on: MDA-N
EKVX = tested on: EKVX
TK-10 = tested on: TK-10
OVCAR-4 = tested on: OVCAR-4
HOP-18 = tested on: HOP-18
NCI-H522 = tested on: NCI-H522
CAKI-1 = tested on: CAKI-1
PC-3 = tested on: PC-3
KM-20L2 = tested on: KM-20L2
SN12C = tested on: SN12C
MCF7 = tested on: MCF7
A498 = tested on: A498
SK-MEL-28 = tested on: SK-MEL-28
SNB-78 = tested on: SNB-78
MDA-MB-435 = tested on: MDA-MB-435
Hs-578T = tested on: Hs-578T
IGROV-1 = tested on: IGROV-1
SW-620 = tested on: SW-620
OVCAR-5 = tested on: OVCAR-5
UACC-62 = tested on: UACC-62
DMS-273 = tested on: DMS-273
HCT-15 = tested on: HCT-15
HOP-92 = tested on: HOP-92
HCC 2998 = tested on: HCC 2998
HOP-62 = tested on: HOP-62
SF-268 = tested on: SF-268
DU-145 = tested on: DU-145
M19-MEL = tested on: M19-MEL
MDA-MB-231 = tested on: MDA-MB-231
SK-MEL-5 = tested on: SK-MEL-5
RPMI-8226 = tested on: RPMI-8226
SNB-19 = tested on: SNB-19
HL-60 = tested on: HL-60
Malme-3M = tested on: Malme-3M
RXF 393 = tested on: RXF 393
SNB-75 = tested on: SNB-75
K562 = tested on: K562
NCI-H460 = tested on: NCI-H460
NCI-H23 = tested on: NCI-H23
LOX IMVI = tested on: LOX IMVI
HT-29 = tested on: HT-29
DMS-114 = tested on: DMS-114
KM12 = tested on: KM12
SK-OV-3 = tested on: SK-OV-3
U-251 = tested on: U-251
SF-295 = tested on: SF-295
DLD-1 = tested on: DLD-1
ACHN = tested on: ACHN
MOLT-4 = tested on: MOLT-4
SK-MEL-2 = tested on: SK-MEL-2
SF-539 = tested on: SF-539
M14 = tested on: M14
A549 = tested on: A549
786-0 = tested on: 786-0
SR = tested on: SR
RXF 631 = tested on: RXF 631
LXFL 529 = tested on: LXFL 529
COLO 205 = tested on: COLO 205

With O=C1/C(=C\c2ccccc2)CN(C(=O)CCN2CCCCC2)C/C1=C/c1ccccc1 as the molecule, how does the GI50 (HCT-116) read?
Its GI50 is 0.254 µM (active).

What about the GI50 (CCRF-CEM) of the same molecule?
The GI50 was 0.198 µM (active).

What about the GI50 (NCI-H226) of the same molecule?
Its GI50 is 6.11 µM (inactive).

And the GI50 (OVCAR-8)?
Its GI50 is 0.869 µM (active).

What about the GI50 (BT-549) of the same molecule?
Its GI50 is 0.553 µM (active).

What about the GI50 (XF498) of the same molecule?
Its GI50 is 1.73 µM (inactive).

And the GI50 (UO-31)?
Its GI50 is 1.91 µM (inactive).

What about the GI50 (UACC-257) of the same molecule?
The GI50 was 1.76 µM (inactive).

What about the GI50 (OVCAR-3) of the same molecule?
Its GI50 is 2.28 µM (inactive).

And the GI50 (MDA-N)?
The GI50 was 1.19 µM (inactive).

And the GI50 (EKVX)?
Its GI50 is 3.71 µM (inactive).

And the GI50 (TK-10)?
The GI50 was 3.93 µM (inactive).

And the GI50 (OVCAR-4)?
Its GI50 is 1.73 µM (inactive).

And the GI50 (HOP-18)?
Its GI50 is 3.03 µM (inactive).

And the GI50 (NCI-H522)?
The GI50 was 0.757 µM (active).

What about the GI50 (CAKI-1) of the same molecule?
Its GI50 is 1.71 µM (inactive).

And the GI50 (PC-3)?
The GI50 was 1.24 µM (inactive).

What about the GI50 (KM-20L2) of the same molecule?
Its GI50 is 0.811 µM (active).

What about the GI50 (SN12C) of the same molecule?
Its GI50 is 0.966 µM (active).

And the GI50 (MCF7)?
Its GI50 is 0.415 µM (active).

What about the GI50 (A498) of the same molecule?
The GI50 was 2.69 µM (inactive).

What about the GI50 (SK-MEL-28) of the same molecule?
Its GI50 is 1.97 µM (inactive).

What about the GI50 (SNB-78) of the same molecule?
The GI50 was 2.54 µM (inactive).

What about the GI50 (MDA-MB-435) of the same molecule?
Its GI50 is 2.05 µM (inactive).

And the GI50 (Hs-578T)?
Its GI50 is 0.0153 µM (active).

What about the GI50 (IGROV-1) of the same molecule?
Its GI50 is 1.95 µM (inactive).

And the GI50 (SW-620)?
The GI50 was 0.167 µM (active).

And the GI50 (OVCAR-5)?
Its GI50 is 1.72 µM (inactive).

And the GI50 (UACC-62)?
Its GI50 is 1.43 µM (inactive).

And the GI50 (DMS-273)?
Its GI50 is 1.44 µM (inactive).

And the GI50 (HCT-15)?
The GI50 was 1.09 µM.

And the GI50 (HOP-92)?
Its GI50 is 3.55 µM (inactive).

And the GI50 (HCC 2998)?
Its GI50 is 1.44 µM (inactive).

What about the GI50 (HOP-62) of the same molecule?
Its GI50 is 12.9 µM (inactive).

And the GI50 (SF-268)?
Its GI50 is 1.78 µM (inactive).

And the GI50 (DU-145)?
Its GI50 is 5.21 µM (inactive).

What about the GI50 (M19-MEL) of the same molecule?
The GI50 was 0.658 µM (active).

What about the GI50 (MDA-MB-231) of the same molecule?
The GI50 was 1.48 µM (inactive).

What about the GI50 (SK-MEL-5) of the same molecule?
The GI50 was 1.17 µM (inactive).

What about the GI50 (RPMI-8226) of the same molecule?
The GI50 was 0.0832 µM (active).

What about the GI50 (SNB-19) of the same molecule?
Its GI50 is 1.84 µM (inactive).

And the GI50 (HL-60)?
Its GI50 is 0.313 µM (active).

And the GI50 (Malme-3M)?
Its GI50 is 2.25 µM (inactive).

What about the GI50 (RXF 393) of the same molecule?
The GI50 was 1.95 µM (inactive).

What about the GI50 (SNB-75) of the same molecule?
The GI50 was 0.834 µM (active).

And the GI50 (K562)?
Its GI50 is 0.179 µM (active).

And the GI50 (NCI-H460)?
The GI50 was 2.35 µM (inactive).

And the GI50 (NCI-H23)?
Its GI50 is 1.89 µM (inactive).

What about the GI50 (LOX IMVI) of the same molecule?
Its GI50 is 0.283 µM (active).

What about the GI50 (HT-29) of the same molecule?
The GI50 was 0.443 µM (active).

And the GI50 (DMS-114)?
The GI50 was 1.23 µM (inactive).

What about the GI50 (KM12) of the same molecule?
Its GI50 is 0.379 µM (active).

What about the GI50 (SK-OV-3) of the same molecule?
Its GI50 is 4.01 µM (inactive).

What about the GI50 (U-251) of the same molecule?
The GI50 was 0.632 µM (active).

And the GI50 (SF-295)?
Its GI50 is 1.67 µM (inactive).

And the GI50 (DLD-1)?
The GI50 was 1.19 µM (inactive).

What about the GI50 (ACHN) of the same molecule?
The GI50 was 1.95 µM (inactive).

What about the GI50 (MOLT-4) of the same molecule?
Its GI50 is 0.231 µM (active).

What about the GI50 (SK-MEL-2) of the same molecule?
The GI50 was 2 µM (inactive).

And the GI50 (SF-539)?
Its GI50 is 3.25 µM (inactive).

What about the GI50 (M14) of the same molecule?
The GI50 was 1.7 µM (inactive).

And the GI50 (A549)?
The GI50 was 3.73 µM (inactive).

What about the GI50 (786-0) of the same molecule?
Its GI50 is 1.3 µM (inactive).

What about the GI50 (SR) of the same molecule?
The GI50 was 0.315 µM (active).

What about the GI50 (RXF 631) of the same molecule?
The GI50 was 1.47 µM (inactive).

And the GI50 (LXFL 529)?
Its GI50 is 1.32 µM (inactive).

What about the GI50 (COLO 205) of the same molecule?
Its GI50 is 1.76 µM (inactive).

What does the source list for CCN(CC)CCCC(C)NC(=O)c1ccc2c(c1)C(=O)c1ccccc1C2=O (stereo unspecified)?
GI50 (HCT-116): 18.6 µM (inactive); GI50 (CCRF-CEM): 21.7 µM (inactive); GI50 (NCI-H226): 22.3 µM (inactive); GI50 (OVCAR-8): 22.3 µM (inactive); GI50 (XF498): 16.1 µM (inactive); GI50 (UO-31): 20.1 µM (inactive); GI50 (UACC-257): 11.9 µM (inactive); GI50 (OVCAR-3): 7.74 µM (inactive); GI50 (EKVX): 21.3 µM (inactive); GI50 (TK-10): 24.2 µM (inactive); GI50 (OVCAR-4): 15.1 µM (inactive); GI50 (HOP-18): > 85.5 µM (inactive); GI50 (NCI-H522): 18.9 µM (inactive); GI50 (CAKI-1): 25.9 µM (inactive); GI50 (KM-20L2): 18.3 µM (inactive); GI50 (SN12C): 18.1 µM (inactive); GI50 (A498): 20.6 µM (inactive); GI50 (SK-MEL-28): 17.9 µM (inactive); GI50 (SNB-78): 22.9 µM (inactive); GI50 (IGROV-1): 24.9 µM (inactive); GI50 (SW-620): 13.6 µM (inactive); GI50 (OVCAR-5): 18.9 µM (inactive); GI50 (UACC-62): 20.5 µM (inactive); GI50 (DMS-273): 21.9 µM (inactive); GI50 (HCT-15): 17.9 µM; GI50 (HOP-92): 24.4 µM (inactive); GI50 (HCC 2998): 18.1 µM (inactive); GI50 (HOP-62): 27.2 µM (inactive); GI50 (SF-268): 23.6 µM (inactive); GI50 (M19-MEL): 16.7 µM (inactive); GI50 (SK-MEL-5): 14.5 µM (inactive); GI50 (RPMI-8226): 18.7 µM (inactive); GI50 (SNB-19): 21.6 µM (inactive); GI50 (HL-60): 13.5 µM (inactive); GI50 (Malme-3M): 12.9 µM (inactive); GI50 (RXF 393): 19.7 µM (inactive); GI50 (SNB-75): 48.2 µM (inactive); GI50 (K562): 18.3 µM (inactive); GI50 (NCI-H460): 16.4 µM (inactive); GI50 (NCI-H23): 15.4 µM (inactive); GI50 (LOX IMVI): 15.9 µM (inactive); GI50 (HT-29): 14 µM (inactive); GI50 (DMS-114): 11.4 µM (inactive); GI50 (KM12): 15.4 µM (inactive); GI50 (SK-OV-3): 40.1 µM (inactive); GI50 (U-251): 20.1 µM (inactive); GI50 (SF-295): 21.4 µM (inactive); GI50 (DLD-1): 17.5 µM (inactive); GI50 (ACHN): 18.1 µM (inactive); GI50 (MOLT-4): 16.6 µM (inactive); GI50 (SK-MEL-2): 19.5 µM (inactive); GI50 (SF-539): 19.2 µM (inactive); GI50 (M14): 18.1 µM (inactive); GI50 (A549): 21.7 µM (inactive); GI50 (786-0): 18.6 µM (inactive); GI50 (SR): 20.7 µM (inactive); GI50 (RXF 631): 24.1 µM (inactive); GI50 (LXFL 529): 24.7 µM (inactive); GI50 (COLO 205): 8.38 µM (inactive)

Reference: ChEMBL document CHEMBL1201862, “PubChem BioAssay data set” (2004)
